These are literature values, as cited in patent US7361646B2, “Methods for treating gastroesophageal reflux disease” (Corcept Therapeutics, Inc., priority 2002, dated 2008).

The conditions of data set [1]: in one study (Kawai).
Data set [2] addresses T1, glucocorticoid (GR) receptors (Homo sapiens, UniProt P04150).
T1 sequence (P04150 1-777): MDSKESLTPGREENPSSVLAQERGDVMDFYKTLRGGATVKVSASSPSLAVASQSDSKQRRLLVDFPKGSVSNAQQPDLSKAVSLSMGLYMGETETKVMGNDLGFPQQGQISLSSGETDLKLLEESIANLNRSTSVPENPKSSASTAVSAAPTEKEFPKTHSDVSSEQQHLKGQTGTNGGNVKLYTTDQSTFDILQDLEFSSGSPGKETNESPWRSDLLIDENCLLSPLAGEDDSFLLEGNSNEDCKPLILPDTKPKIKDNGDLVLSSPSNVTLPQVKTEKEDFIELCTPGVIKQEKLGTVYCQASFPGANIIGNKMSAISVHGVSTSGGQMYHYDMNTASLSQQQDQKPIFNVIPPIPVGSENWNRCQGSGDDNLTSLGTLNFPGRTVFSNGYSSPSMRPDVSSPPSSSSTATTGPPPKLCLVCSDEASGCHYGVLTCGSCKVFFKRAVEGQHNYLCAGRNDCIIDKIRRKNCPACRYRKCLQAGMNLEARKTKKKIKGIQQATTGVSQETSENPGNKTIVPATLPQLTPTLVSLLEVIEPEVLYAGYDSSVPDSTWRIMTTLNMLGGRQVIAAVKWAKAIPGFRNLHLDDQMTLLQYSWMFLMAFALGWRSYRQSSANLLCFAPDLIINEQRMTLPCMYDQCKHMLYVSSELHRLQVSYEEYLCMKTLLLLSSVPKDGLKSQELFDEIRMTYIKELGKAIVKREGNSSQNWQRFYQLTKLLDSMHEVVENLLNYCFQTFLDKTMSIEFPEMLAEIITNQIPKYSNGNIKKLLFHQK
To be noted: result in words.

Another data set addresses T2, progesterone receptor (Homo sapiens, UniProt P06401).
T2 sequence (P06401 1-933): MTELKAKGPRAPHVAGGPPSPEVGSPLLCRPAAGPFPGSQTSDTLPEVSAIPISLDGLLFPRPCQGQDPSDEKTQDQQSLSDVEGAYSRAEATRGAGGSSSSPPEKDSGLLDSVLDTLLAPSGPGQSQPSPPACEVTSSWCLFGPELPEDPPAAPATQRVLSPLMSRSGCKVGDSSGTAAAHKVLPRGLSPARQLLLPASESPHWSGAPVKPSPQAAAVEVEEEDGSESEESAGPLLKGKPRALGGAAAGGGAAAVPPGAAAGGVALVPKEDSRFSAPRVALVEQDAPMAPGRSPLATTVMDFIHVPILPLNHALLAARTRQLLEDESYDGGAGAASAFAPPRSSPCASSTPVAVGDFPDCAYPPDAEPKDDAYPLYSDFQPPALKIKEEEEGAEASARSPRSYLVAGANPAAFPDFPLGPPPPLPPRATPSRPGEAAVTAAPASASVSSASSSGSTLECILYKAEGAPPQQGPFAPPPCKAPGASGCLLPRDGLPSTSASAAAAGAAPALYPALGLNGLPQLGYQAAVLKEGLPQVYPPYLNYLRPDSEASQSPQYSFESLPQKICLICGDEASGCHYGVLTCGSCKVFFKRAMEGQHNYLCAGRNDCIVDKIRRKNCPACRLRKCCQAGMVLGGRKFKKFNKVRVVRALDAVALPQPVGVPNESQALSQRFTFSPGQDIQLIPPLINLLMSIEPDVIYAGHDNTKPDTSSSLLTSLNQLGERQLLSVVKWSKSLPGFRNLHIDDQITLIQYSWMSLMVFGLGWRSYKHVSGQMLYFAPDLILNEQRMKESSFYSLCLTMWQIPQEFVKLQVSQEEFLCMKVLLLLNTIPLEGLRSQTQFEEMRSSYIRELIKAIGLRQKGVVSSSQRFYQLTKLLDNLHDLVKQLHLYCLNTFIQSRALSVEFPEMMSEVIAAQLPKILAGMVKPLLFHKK
As to conditions: result in words.

Data set [3] has as its target T3, Mineralocorticoid receptors (MRs) (Homo sapiens, UniProt P08235).
T3 sequence (P08235 1-984): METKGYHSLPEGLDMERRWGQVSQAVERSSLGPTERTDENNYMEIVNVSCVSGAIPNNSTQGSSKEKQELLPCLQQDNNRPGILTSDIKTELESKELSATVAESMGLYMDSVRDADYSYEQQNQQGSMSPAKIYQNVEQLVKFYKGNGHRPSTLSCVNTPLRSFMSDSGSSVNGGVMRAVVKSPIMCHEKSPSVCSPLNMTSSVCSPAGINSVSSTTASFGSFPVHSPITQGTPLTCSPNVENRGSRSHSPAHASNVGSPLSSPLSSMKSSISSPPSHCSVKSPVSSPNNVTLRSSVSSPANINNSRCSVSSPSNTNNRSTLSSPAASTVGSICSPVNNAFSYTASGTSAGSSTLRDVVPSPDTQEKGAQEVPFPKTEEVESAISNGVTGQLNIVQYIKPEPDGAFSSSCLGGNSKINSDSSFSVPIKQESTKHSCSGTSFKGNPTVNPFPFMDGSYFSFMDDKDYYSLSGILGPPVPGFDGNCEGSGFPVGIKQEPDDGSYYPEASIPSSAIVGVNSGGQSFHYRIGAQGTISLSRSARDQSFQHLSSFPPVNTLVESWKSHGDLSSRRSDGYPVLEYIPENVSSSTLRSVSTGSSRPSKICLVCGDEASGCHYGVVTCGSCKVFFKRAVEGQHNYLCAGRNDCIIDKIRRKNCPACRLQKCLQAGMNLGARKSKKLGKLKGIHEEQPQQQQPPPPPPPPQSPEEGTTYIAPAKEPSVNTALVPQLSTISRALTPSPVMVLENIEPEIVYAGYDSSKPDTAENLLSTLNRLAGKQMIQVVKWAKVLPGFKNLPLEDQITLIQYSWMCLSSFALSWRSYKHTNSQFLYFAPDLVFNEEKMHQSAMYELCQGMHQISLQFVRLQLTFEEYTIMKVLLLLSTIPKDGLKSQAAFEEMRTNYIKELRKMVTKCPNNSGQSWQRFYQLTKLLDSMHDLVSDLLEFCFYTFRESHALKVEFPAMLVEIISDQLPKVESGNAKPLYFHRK
As to conditions: MR versus GR.

In the case of `CC#C[C@]1(O)CC[C@H]2[C@@H]3CCC4=CC(=O)CCC4=C3[C@@H](c3ccc(N(C)C)cc3)C[C@@]21C` [Mifepristone, (11β,17β) 11[4(dimethylamino)phenyl]-17hydroxy-17(1 propynyl)estra-4,9dien-3one], in data set [1], the “share of the daily dose excreted in the urine” value was “less than 0.5 % of the daily dose”. In addition, the GR antagonist effect entry in data set [2] is “powerful antagonist”. In addition, at progesterone receptor, the “progesterone receptor antagonist effect” value is on record as “powerful antagonist”.

Turning to `CC#C[C@]1(O)CC[C@H]2[C@@H]3CCC4=CC(=O)CCC4=C3[C@@H](c3ccc(OCCN(C)C)cc3)C[C@@]21C` [RU009, 11β-(4-dimethylaminoethoxyphenyl)-17α-propynyl-17β-hydroxy-4,9-estradien-3-one], the GR antagonist effect result in data set [2] is given as “shown to have GR antagonist effects”.

For the compound `C[C@]12CCC(=O)C=C1CC[C@@H]1[C@@H]2[C@@H](O)C[C@@]2(C)[C@H]1CC[C@]2(O)C(=O)CO` [cortisol], the “affinity of MRs for cortisol relative to GRs for glucocorticoids” value in data set [3] is listed as “ten-fold higher affinity”.
